Broadly, the half-life is how long it takes for the measured level to halve. A high value points to slow loss.

One data set concerns glutaminase. In words: Glutaminase activity in peripheral blood mononuclear cells (PBMCs) of treated patients. The conditions noted are these: PBMCs from three patients treated with 600, 800 and 1000 mg three times per day; 10-58% leukemic blast counts. It is filed as in vivo, human.
Data set [1] is described as follows: Pharmacokinetics in cancer patients, dosing schedule of FIG. 6. It is filed as in vivo, human. As to the method:
FIG. 6 is a table that describes the dosing regimen for CB-839.
CB-839 was administered to cancer patients according to the dosing schedule in FIG. 6. The half-life of CB-839 is approximately 4 hours.

Another data set deals with acute leukemia. In words: Clinical outcomes in efficacy-evaluable subjects with acute leukemia.
A short description of data set [2]: Safety: dose-limiting toxicity and treatment-related adverse events in Examples 1 and 2.
Experimental: The compound of formula III (CB-839) was administered, orally, to fifteen human subjects with acute leukemia for 22 days. The compound was administered three times per day (“TID”) at doses ranging from 100 mg per dose to 1000 mg per dose (i.e., 300 mg to 3000 mg total compound per day). Plasma levels of the compound were monitored on days 1, 15, and 22. Subjects received the compound in a fasted state on days 1 and 15 (e.g., without a meal as defined herein) and in a fed state on day 22 (e.g., with a meal as defined herein). Administration of the compound in a fasted state consisted of oral administration of a first dose 1 hour before breakfast, oral administration of a second dose at 3 PM, and oral administration of a third dose prior to bedtime.
Each subject from Example 1 who remained enrolled in the trial were administered 600 mg of the compound of formula III orally, twice a day (“BID”), with food, each day after day 22 of the trial (i.e., 1200 mg of the compound per day).
Data set [3] in a line: Plasma pharmacokinetics after oral TID/BID dosing, fasted or fed, in human subjects with acute leukemia. Particulars: 600 mg twice a day with food.
Experimental: The compound was administered three times per day (“TID”) at doses ranging from 100 mg per dose to 1000 mg per dose (i.e., 300 mg to 3000 mg total compound per day). Plasma levels of the compound were monitored on days 1, 15, and 22. Subjects received the compound in a fasted state on days 1 and 15 (e.g., without a meal as defined herein) and in a fed state on day 22 (e.g., with a meal as defined herein). Administration of the compound in a fasted state consisted of oral administration of a first dose 1 hour before breakfast, oral administration of a second dose at 3 PM, and oral administration of a third dose prior to bedtime.
Each subject from Example 1 who remained enrolled in the trial were administered 600 mg of the compound of formula III orally, twice a day (“BID”), with food, each day after day 22 of the trial (i.e., 1200 mg of the compound per day). […] Pharmacokinetics data was compared for subjects receiving 600 mg of the compound three times per day in a fasted state (i.e., 1800 mg of the compound per day, without meals as defined herein) and subjects receiving 600 mg of the compound two times per day in a fed state (i.e., 1200 mg of the compound per day, with meals as defined herein).
Where [4] appears, read: BID Fed dosing regimen, FIG. 6-8.
[5] abbreviates: occurred in greater than 10% of subjects, fifteen subjects.

“Also recorded” adds a separate entry of the source. Bounds are passed on as bounds.

Experimental for glutaminase: The compound was administered three times per day (“TID”) at doses ranging from 100 mg per dose to 1000 mg per dose (i.e., 300 mg to 3000 mg total compound per day).

Consider `O=C(Cc1cccc(OC(F)(F)F)c1)Nc1ccc(CCCCc2nnc(NC(=O)Cc3ccccn3)s2)nn1` [CB-839], for which the “inhibition of glutaminase activity” value in the data set with glutaminase is given as more than 94%. Also, in data set [1] (setting [4]), the “PK variability with BID Fed dosing regimen” value is listed as “PK variability is reduced” and the “exposure with BID Fed dosing regimen” value is “consistent exposure; also recorded: target CB-839 concentrations are maintained”. Moreover, in data set [1] (cancer patients, dosing schedule of FIG. 6), the exposure versus dose result is on record as “Exposure generally increases with dose”. In data set [1] (human, in vivo, oral, cancer patients), this molecule gave a half-life of approximately 4 h. Further, the complete response entry with acute leukemia (after 6 cycles of dosing) is “One subject achieved a complete response in the bone marrow with incomplete recovery of peripheral counts”. Besides, the “stable disease for 4-10 cycles” value with acute leukemia (of 15 efficacy-evaluable subjects across all dose levels, 1 cycle=21 days) is 5 (33%) subjects. Moreover, the “average time remaining on the study drug” value in the data set with acute leukemia (subjects with stable disease) worked out at 134 days. Also, in data set [2] (Examples 1 and 2, all dose levels), the dose-limiting toxicity result is “No dose-limiting toxicity was identified”. Besides, in data set [2] (setting [5]), the “increased bilirubin levels (treatment-related adverse event)” value worked out at 2 subjects and the “increased transaminase levels (treatment-related adverse event)” value amounted to 4 subjects. The “time in which Cmax was reached” value in data set [3] was 2 to 6 h. The “plasma levels of the compound” value in data set [3] (all subjects) is “exceeded 450 nM”.
